We go through four compounds from US10575520B2, “Cyclohexylamine-based compounds and uses thereof” (BOARD OF SUPERVISORS OF LOUISIANA STATE UNIVERSITY AND …, priority 2016, dated 2020).

Data set [1] deals with worker C. formosanus termites. Kind of data set: Dose-response feeding assay (termite mortality on treated filter paper). An excerpt:
Worker C. formosanus were collected from Brechtel Park, New Orleans, La. by methods known in the art. Bait crates (open-mesh plastic containers) filled with southern yellow pine or spruce-pine-fir sapwood were arranged into a lattice and buried near a C. formosanus infested tree and collected after 3 to 9 weeks. Termite-containing crates were held in 250-liter plastic garbage cans kept at room temperature (26-28 C) and 70-80% relative humidity with the original food source. Termites were collected from New Orleans on 13 Jun. 2006 (collection group A); 9 Aug. 2006 (collection group B); 1 Mar. 2008 (collection group C); 9 May 2008 (collection group D); 20 May 2008 (collection group E); 20 Mar. 2009 (collection group F); 29 May 2009 (collection group G) and 11 May 2010 (collection group H); 18 Aug. 2012 (collection group I); May 2014 (collection group J); August 2014 (collection group K). The termite collection procedure was tapping infested wood sticks into clean plastic containers where termites were collected on moistened paper towels.
(§1) 2-phospho-myo-inositol (dicyclohexylamine salt), glycerol-3-phosphate (dicyclohexylamine salt), dicyclohexylamine phosphate, monocyclohexylamine phosphate, and neat cyclohexylamine were screened for termiticide activity as follows: test compounds were applied to 42.5 mm×3 μm filter papers, in 60×15 mm plastic Petri dishes, in a solution of 1 mg of test compound per 10 μL of distilled water. Doses of 2.5 mg (160.2 μg/mm^3 of filter paper), 5 mg (320.4 μg/mm^3) 10 mg (640.8 μg/mm^3), and 20 mg (1281.7 μg/mm^3) of 2-phospho-myo-inositol were examined. Following filter paper treatment distilled water was added to bring the total volume applied to the filter papers to 300 μL, using 300 μL of distilled water as control. Cyclohexylamine was applied to the paper diluted in amounts of 300 μL, in concentrations ranging from 0.626 to 10.2 μg/mm^3. To prevent desiccation, approximately 50 μL of distilled water was applied to filter paper throughout the trials every third day, or upon observing that a filter paper disc was relatively dry. To test whether termite mortality was induced by consumption of the cyclohexylamine-treated paper, or whether vapor presence of cyclohexylamine was responsible for the toxicity, we compared addition of cyclohexylamine to both paper and fiberglass filters—the latter of which they will not consume. In addition to pure cyclohexylamine, dicyclohexylamine phosphate and monocyclohexylamine phosphate were tested for toxicity. Dicyclohexylamine phosphate was tested in concentrations ranging from 0.348 to 348 μg/mm^3, and monocyclohexylamine phosphate was tested in concentrations ranging from 2.28 to 228 μg/mm^3. Replicates of twenty worker termites were incubated in the dark in a parafilm-sealed Petri dish at room temperature for 2 weeks. Termite mortality was recorded daily in triplicate experiments. An analysis of variance (ANOVA) (SAS ANOVA procedure) followed by Tukey's Studentized range test was used to evaluate statistical differences among groups (Institute 1989). All mortality data were judged at a=0.05.
(§2) Termites from collection group B were used in the 2-Phospho-Myo-Inositol dose mortality assay. Termites from collection groups C and D were used in both the dicyclohexylamine-2-phophoinositol, and dicylclohexyalmine-glycerol-3-phosphate dose mortality assay. Termites from collection group I were used in cyclohexylamine dose mortality assays. Termites from collection […] in the dicyclohexylamine phosphate and neat cyclohexylamine volatility dose mortality assays. Termites from collection group K were used in the monocyclohexylamine phosphate dose mortality assay.

Data set [2] has as its system worker C. formosanus termites. Kind of data set: Cyclohexylamine volatile effects (cellulose paper vs fiberglass filter mortality). The following applies: 600 μg. On the procedure: as §1, §2
For data set [3], the system named is worker C. formosanus termites. Kind of data set: Cellulose (filter paper) consumption. The format is in vivo, Coptotermes formosanus. How it is done: In dose mortality experiments where paper consumption data are shown, filter papers were weighed in ambient humidity prior to sugar application. After 14 days termites were removed from the dishes and the filter paper from each replicate was cleaned, washed of residual carbohydrate and dried at 100 C for 24 h. After drying and humidity equilibration for 24 h, filter papers were reweighed for determination of paper consumption. […] All consumption data were judged at a=0.05.

The structures appear in SMILES notation.

For orientation: mortality means the percentage killed.

On to `C1CCC(NC2CCCCC2)CC1.O=P(O)(O)O` [Dicyclohexylamine Phosphate, Dicyclohexylamine phosphate], for which the “day on which mortality became significantly higher” value in data set [1] (0.348 μg/mm^3) is given as “three”. Further, the mortality in data set [1] (0.348 μg/mm^3, day 14) was found to be 28%; in data set [1] (4.90 μg/mm^3, day 14), 38%; in data set [1] (9.8 μg/mm^3, day 14), 36%; in data set [1] (68.88 μg/mm^3, day 14), 45%; in data set [1] (348 μg/mm^3, first day) it was 100%. For the same compound, the mortality versus control result in data set [1] (1.22 μg/mm^3) is “The two highest dosage groups, 4.90 and 9.80 μg/mm^3, displayed mortality significantly different than the control”; in data set [1] (2.45 μg/mm^3), “The two highest dosage groups, 4.90 and 9.80 μg/mm^3, displayed mortality significantly different than the control”. For the same compound, the “day on which mortality became significantly different” value is recorded as “three” in data set [1] (4.90 μg/mm^3), “four” in data set [1] (9.8 μg/mm^3) and “five” in data set [1] (68.88 μg/mm^3). Besides, the “mortality versus control group” value in data set [1] (17.22 μg/mm^3) and in data set [1] (34.44 μg/mm^3) was “significantly different than the control group” in each case.

In the case of `NC1CCCCC1.O=P(O)(O)O` [Monocyclohexylamine Phosphate, Monocyclohexylamine phosphate], the mortality versus control result in data set [1] (2.28 μg/mm^3) and in data set [1] (22.8 μg/mm^3) was “not significantly different from the control” each time. The “day on which mortality became significantly different” value in data set [1] (228 μg/mm^3) was 10 days. The mortality in data set [1] (228 μg/mm^3, day 10) came to 38%; in data set [1] (228 μg/mm^3, day 14) it was 100%.

In the case of `NC1CCCCC1` [Neat Cyclohexylamine, cyclohexylamine], the results for the “day on which mortality became significantly different” value in data set [2] (treatment of cellulose) and in data set [1] (2.51 μg/mm^3) were “eight” and “six”, respectively. Moreover, the mortality was 45% in data set [2] (treatment of cellulose, day 14); 25% in data set [2] (treatment of cellulose, day eight); 33% in data set [1] (1.7 μg/mm^3, day 14); 41% in data set [1] (2.4 μg/mm^3, day 14); 63% in data set [1] (2.51 μg/mm^3, day 14); 16% in data set [1] (2.51 μg/mm^3, day six). Further, the mortality turned out to be 100% in data set [1] (3.39 μg/mm^3, day three); 100% in data set [1] (5.08 μg/mm^3, within one to three days); 100% in data set [1] (10.2 μg/mm^3, day one). Also, the “mortality versus corresponding control group” value in data set [2] (treatment of fiberglass) was “did not result in mortality significantly different than that of the corresponding control group”. Besides, the mortality versus control result is listed as “only the highest dosage group, 2.51 μg/mm^3, displayed significantly different mortality” in data set [1] (0.62 μg/mm^3); “only the highest dosage group, 2.51 μg/mm^3, displayed significantly different mortality” in data set [1] (0.82 μg/mm^3); “Only the two highest dosage groups displayed mortality significantly different from the control” in data set [1] (1.0 μg/mm^3 (lowest dosage of 1.0, 1.7, 2.4)); “only the highest dosage group, 2.51 μg/mm^3, displayed significantly different mortality” in data set [1] (1.25 μg/mm^3). The figures for the “day on which mortality became significant” value in data set [1] (1.7 μg/mm^3) and in data set [1] (2.4 μg/mm^3) were “eight” and “five”, respectively. In addition, the “consumption rate per termite versus control” value in data set [3] (0.626 μg/mm^3, 14 days) is “did not result in a consumption rate per termite significantly different from the control group”. Further, the “consumption rate (per surviving termites) versus control” value is “significantly lower than the control group” in data set [3] (0.822 μg/mm^3, 14 days); “significantly lower than the control group” in data set [3] (1.253 μg/mm^3, 14 days); “significantly lower than the control group” in data set [3] (2.510 μg/mm^3, 14 days).

Regarding `C1CCC(NC2CCCCC2)CC1.O=P(O)(O)OCC(O)CO` [glycerol-3-phosphate (dicyclohexylamine salt)], the “day on which mortality became significant” value in data set [1] (higher dosage group, 640.8 μg/mm^3) was found to be 5 days; in data set [1] (lower dosage group, 320.4 μg/mm^3), 12 days. Besides, the mortality is recorded as 98% in data set [1] (higher dosage group, 640.8 μg/mm^3, day 12) and 71% in data set [1] (lower dosage group, 320.4 μg/mm^3, day 14).
